Results reported in publication PMC10035370, “Targeting Tumor Angiogenesis with the Selective VEGFR-3 Inhibitor EVT801 in Combination with Cancer Immunotherapy” (Cancer Research Communications, 2022).
Like-named read-outs stand apart in the source and are kept apart here.

Legend:
[1] = tested on: BNL-R3 tumors; experiment: VEGFR3 expressing BNL tumor model (BNL-R3); format: in vivo, mice
Experimental: A total number of 60 female BALB/c mice were injected subcutaneously on the flank with 2 x 10^6 cells in 250 μL PBS buffer/growth factor reduced Matrigel®. Mice were then kept in a post-operative cabinet at 28 °C until complete recovery. Assuming an ovoid form, tumor volume in mm3 was calculated using digital callipers according to the following formula: V = 0.52 x (width)² x length. On day 7, mice were randomized into 4 groups of 11 mice and 1 group with 16 mice, according to mean tumor volume via cage equalizer software. Subsequently, tumor volume was measured on days 11, 13, 15, 18, 19 and 21 following tumor cell injection. The selected groups received vehicle or EVT801 orally in a volume of 10 mL/kg. Mice body weight was measured daily before dosing. On the day of termination, mice were anaesthetized to facilitate 500 μL blood withdrawal by puncture of the jugular vein. Three mice per group and per time point (i.e., 0.5, 2, 4 and 24 h after the last dosing) were allocated for pharmacokinetic study. Spleens of 3 mice per group were collected, and immune cell populations were separated from dissociated splenocytes via MACS, and subjected to flow cytometry analysis.

[2] = tested on: CT26 tumors; experiment: CT26 ectopic tumor mouse model; format: in vivo, mice
Experimental: BALB/c mice were anesthetized with ketamine (100 mg/kg) combined with xylazine (10 mg/kg) via intraperitoneal injection. A total of 5 × 10^4 CT26 tumor cells were suspended in 200 μL of Matrigel matrix, and then inoculated in the flank of legs. After implantation, mice were randomly separated into two groups. One group received EVT801 by oral gavage and anti-PD-1 by intraperitoneal injection in a volume of 10 mL/kg, whereas the mice in the second group served as control, and were injected with IgG isotype. PD-1 was injected at day 11, day 14, and day 18 after CT26 inoculation. EVT801 was administrated daily by oral route at 30 mg/kg from day 11 until day 21. Tumor volume was measured on days 11, 13, 15, 18, 19 and 21 following tumor cell injection. The selected groups received vehicle or EVT801 orally in a volume of 10 mL/kg. At day 21, 60 mg/kg hypoxyprobe was injected 30 minutes before sacrifice of mice. The tumors were embedded in paraffin for histology studies.

[3] = tested on: hLMVEC; experiment: Growth factor-induced hLMVEC proliferation; format: cell-based, human; settings: for IC50: Homo sapiens
Experimental: hLMVEC were seeded in white cell culture-treated flat and clear bottom multi-well plates and incubated at 37 °C overnight, before compounds were added. After incubation for 72 h at 37 °C, plates were equilibrated to ambient temperature for 1 h, and CellTiterGlo reagent (Promega) was added. After approximately 1h, luminescence was measured using a luminometer. Curves were fitted via sigmoidal dose response curves, and IC50 values were determined.

[4] = target: T1, VEGFR-2 (Homo sapiens, UniProt P35968); experiment: Cellular autophosphorylation assay, HEK293 cells transiently expressing VEGFR-2; format: cell-based; set-up: expressed in transfected cells; host or cells: HEK293T; settings: read-out: IC50 in cellular assays, VEGFR-2 autophosphorylation
Experimental: Transfection of HEK293T cells and Ba/F3 cells with VEGFR-1-Flag, VEGFR-2-Flag or VEGFR-3-Flag expression constructs was performed using Fugene-6 (Roche) as per manufacturer’s protocol. Briefly, Fugene-6 was pre-incubated with Opti-Mem (Gibco) before adding DNA. After 24 h, media was replaced with serum-free culture media containing 0.2 % BSA. On the next day, cells were incubated for 1 h in 1 mM orthovanadate, harvested, dissociated and distributed at 4 x 10^5 cells in 5 mL for HEK-VEGFR-1 and HEK-VEGFR-3, and 5 x 10^4 cells per 5 mL for HEK VEGFR-2 in the presence of EVT801 or SAR401849. After 30 min, the reaction was stopped by the addition of cold PBS supplemented with 1 mM orthovanadate. Cells were then lysed with 150 μl of RIPA buffer for 15 min at 4°C, then centrifuged for 10 min at 10,000 g. Supernatants (75 μl) were distributed in duplicate on 96 well plates that were precoated with the anti-flag, and left for 1 h at room temperature. After 3 washes, the anti-phosphotyrosine conjugated to the HRP was added and incubated for 1 h at room temperature. Wells were then washed 3 times with TBS buffer containing 0.5 % Tween-20 and 2 mM MgCl2. The reaction was stopped with 50 μL of 2 N H2SO4, and the signal was read with Envision at the wavelengths of 485 nm and 530 nm.
Target sequence in this assay (P35968 20-1356): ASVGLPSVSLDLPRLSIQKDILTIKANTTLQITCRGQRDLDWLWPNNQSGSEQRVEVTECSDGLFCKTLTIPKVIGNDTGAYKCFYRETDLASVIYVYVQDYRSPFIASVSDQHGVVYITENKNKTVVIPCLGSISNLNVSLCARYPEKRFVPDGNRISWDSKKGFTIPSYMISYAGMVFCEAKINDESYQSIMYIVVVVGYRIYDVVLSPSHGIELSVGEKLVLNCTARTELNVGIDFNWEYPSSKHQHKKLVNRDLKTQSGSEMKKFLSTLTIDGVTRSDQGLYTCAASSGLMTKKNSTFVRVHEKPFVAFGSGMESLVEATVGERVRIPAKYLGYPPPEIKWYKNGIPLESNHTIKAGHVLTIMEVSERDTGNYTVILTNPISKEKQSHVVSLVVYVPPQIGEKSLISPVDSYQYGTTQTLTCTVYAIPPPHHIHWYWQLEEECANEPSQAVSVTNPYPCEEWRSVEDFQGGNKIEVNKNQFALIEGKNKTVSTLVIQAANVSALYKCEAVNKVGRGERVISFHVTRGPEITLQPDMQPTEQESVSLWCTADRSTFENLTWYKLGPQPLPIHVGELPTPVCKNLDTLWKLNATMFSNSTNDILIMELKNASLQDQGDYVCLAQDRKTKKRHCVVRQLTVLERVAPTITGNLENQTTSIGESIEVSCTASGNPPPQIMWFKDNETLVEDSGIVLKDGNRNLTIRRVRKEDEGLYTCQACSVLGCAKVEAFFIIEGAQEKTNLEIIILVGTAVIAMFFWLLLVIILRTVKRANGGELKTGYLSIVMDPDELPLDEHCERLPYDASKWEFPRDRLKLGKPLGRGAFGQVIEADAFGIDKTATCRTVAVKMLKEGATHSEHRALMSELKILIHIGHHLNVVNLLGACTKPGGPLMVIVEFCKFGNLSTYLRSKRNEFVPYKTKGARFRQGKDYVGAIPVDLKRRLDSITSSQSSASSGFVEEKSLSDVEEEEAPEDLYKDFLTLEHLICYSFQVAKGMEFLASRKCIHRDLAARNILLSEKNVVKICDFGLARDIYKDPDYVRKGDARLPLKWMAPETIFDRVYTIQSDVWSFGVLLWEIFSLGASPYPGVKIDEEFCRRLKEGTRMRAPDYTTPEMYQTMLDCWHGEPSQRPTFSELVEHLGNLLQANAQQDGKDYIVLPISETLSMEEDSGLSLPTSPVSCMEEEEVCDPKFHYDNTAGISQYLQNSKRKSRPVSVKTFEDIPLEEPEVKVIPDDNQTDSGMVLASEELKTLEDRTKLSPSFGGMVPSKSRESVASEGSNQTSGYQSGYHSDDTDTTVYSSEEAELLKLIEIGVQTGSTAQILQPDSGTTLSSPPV

[5] = target: T1, VEGFR-2; experiment: Viability of Ba/F3 cells dependent on VEGFR-2; format: cell-based; set-up: fusion proteins consisting of constructs for IL-3 independent survival and either VEGFR-2 or VEGFR-3 kinase domains; expressed in transfected cells; host or cells: Ba/F3 (stably transduced)
Experimental: Ba/F3 cells were transduced and selected to stably express fusion proteins consisting of constructs for IL-3 independent survival and either VEGFR-2 or VEGFR-3 kinase domains or without the kinase domain. Proliferation and survival of cell lines was dependent on expression of the transcript. Cells in logarithmic-phase growth were harvested and 5 x 10^3 cells were distributed into each well of a 384-well plate in 50 µL of medium. Then, 50 nL of EVT801, SAR401849 or their vehicle solvent were added to appropriate wells. After 48 h, viability was determined by addition of 10 µL CellTiterGlo reagent (Promega). Luminescence was determined as relative light units (RLU) in counts per second.
Target sequence in this assay (P35968 834-1162 limits assumed, species assumed): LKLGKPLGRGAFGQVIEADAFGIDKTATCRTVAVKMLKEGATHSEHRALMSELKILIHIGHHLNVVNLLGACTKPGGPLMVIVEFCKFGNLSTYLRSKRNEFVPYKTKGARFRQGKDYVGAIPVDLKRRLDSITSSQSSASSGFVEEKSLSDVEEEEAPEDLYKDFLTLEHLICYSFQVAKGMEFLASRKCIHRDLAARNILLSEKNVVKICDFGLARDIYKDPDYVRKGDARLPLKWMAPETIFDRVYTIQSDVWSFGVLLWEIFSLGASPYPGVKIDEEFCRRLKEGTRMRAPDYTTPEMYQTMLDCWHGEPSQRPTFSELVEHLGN

CCn1c(N)c(-c2ncc[nH]2)c(=O)c2ccc(C#C[C@@](C)(O)COC)nc21 [EVT801]
T/C ratio, tumor growth ([1]; 10 mg/kg twice per day): 31% | decrease of number of vessels ([1]; 10 mg/kg twice per day): 60% | decrease of total vessel surface ([1]; 10 mg/kg twice per day): 35% | T/C ratio, tumor growth ([1]; 30 mg/kg twice per day): 10% | decrease of number of vessels ([1]; 30 mg/kg twice per day): 83% | decrease of total vessel surface ([1]; 30 mg/kg twice per day): 29% | tumor hypoxia ([1]; both doses, 10 and 30 mg/kg twice per day): decreased hypoxia | infiltration of CD3+ cells in the tumor ([1]; endpoint): increased | T/C ratio, tumor volume ([2]; BALB/c mice, EVT801 30 mg/kg twice per day, anti-PD-1 twice per week, or both): 55% | reduction of hypoxyprobe-positive areas compared with vehicle ([2]; end of treatment, not statistically significant): 42% | IC50 ([3]; read-out: IC50, inhibition of VEGF-A-induced hLMVEC proliferation): 0.155 µM | IC50 ([3]; read-out: IC50, inhibition of VEGF-C-induced hLMVEC proliferation): 0.015 µM | IC50 ([3]; read-out: IC50, inhibition of VEGF-D-induced hLMVEC proliferation): 0.008 µM | maximum inhibition of VEGF-A-induced hLMVEC proliferation ([3]; VEGF-A): 65% | maximum inhibition of VEGF-C-induced hLMVEC proliferation ([3]; VEGF-C): 74% | maximum inhibition of VEGF-D-induced hLMVEC proliferation ([3]; VEGF-D): 100% | IC50 [4]: 0.26 µM | IC50 [5]: 0.248 µM
